Patent US20240398899A1 (priority 2021, published 2024)

How the values were obtained:
SH-SY5Y neuronal cells [1] = experiment: Cytoprotective effect against MPP+ iodide induced damage, MTT assay; details: MPP+ iodide 1 mM
Procedure: The Human Neuronal SH-SY5Y Cells were counted using hemocytometer and plated in 96 well plate at a density of 25,000 cells/well and incubated at 37° C. for 24 h. After incubation, cells were treated with recombinant lectin protein having the sequence of SEQ ID NO: 1 at concentrations ranging from 0.001 μg/ml 50 μg/ml for 24 h. After 24 h of treatment, cells were exposed to neurotoxin (MPP+ iodide, 1 mM) for 24 h. Cells treated with MPP+ iodide alone were included as negative control. Untreated cells were included as control. […] After treatment, the cytoprotective effect of SEQ ID NO: 1 on cell viability was assessed by 3-(4,5-dimethythiazol-2-yl)-2,5-diphenyl tetrazolium bromide (MTT) assay: The plate was taken out and 20 μl of 5 mg/ml of MTT 3-(4,5-dimethythiazol-2-yl)-2,5-diphenyl tetrazolium bromide solution was added to all the wells. The SH-SY5Y cells were incubated for 3 h at 37° C. The supernatant was aspirated and 150 μl of DMSO was added to each well to dissolve formazan crystals. The absorbance of each well was read at 540 nm using Synergy HT micro plate reader. The protective effect of the SEQ ID NO: 1 on survival of SH-SY5Y cells against MPP+ iodide induced damage was determined as: The viability of cells was determined as:
Where, the percentage cytotoxicity corresponding to each treatment was calculated as follows:
[formula] • X=Absorbance of cells treated with MPP+ iodide/recombinant lectin having SEQ ID NO: 1+MPP+Iodide • R=Absorbance of Control cells (Untreated) • Percentage protection was calculated as:
[(Absorbance of SEQ ID NO:1+MPP+Iodide)−(Absorbance of MPP+Iodide)/(Absorbance of Untreated)−(Absorbance of MPP+Iodide alone)]*100

S100b = experiment: Parkinson biomarker multiplex analysis/ELISA, MPP+ damaged SH-SY5Y; type: cell-based, human; details: MPP + Iodide (2 mM)
Procedure: (§1) After overnight incubation as in the previous examples, cells were treated with recombinant lectin protein having SEQ ID NO: 1 at different concentrations ranging from 0.001 μg/ml-1 μg/ml for 24 h for Parkinson disease and 0.01 μg/ml-25 μg/ml for 24 h for Alzheimer's disease. • Parkinson Disease: After 24 h of pre-treatment with recombinant lectin protein having SEQ ID NO: 1, cells were exposed (MPP+) for another 24 h. Cells treated with MPP+Iodide were included as Control. […] The cells treated with Galantamine were included as positive Control.
(§2) The levels of markers were determined by multiplex analysis as: Cell culture supernatants were diluted (1:2) with Calibrator Diluent. 50 μl of standard or sample was added per well. 50 μl of the microparticle cocktail was added to each well of the microplate and covered with a foil plate sealer. The plate was incubated for 2 hours at room temperature on a horizontal orbital microplate shaker. The plate was washed using a magnetic device designed to accommodate a microplate. Washing was done by applying the magnet to the bottom of the microplate, allowing 1 minute before removing the liquid, filling each well with wash buffer (100 μl) and allowing 1 minute before removing the liquid again. 50 μl of diluted Biotin-Antibody Cocktail was added to each well. Covered the plate with a foil plate sealer and incubated for 1 hour at room temperature on the shaker. Repeated the wash step. 50 μl of diluted Streptavidin-PE was added to each well. The plate was securely covered with a foil plate sealer and incubated for 30 minutes at room temperature on the shaker. Repeated the wash step. The microparticles were resuspended by adding 100 μl of Wash Buffer to each well. The plate was incubated for 2 minutes on the shaker and read within 90 minutes using Magpix® multiplex machine. Levels of biomarkers for Parkinson's and Alzheimer's disease were estimated using Magpix® multiplex machine.
(§3) For Parkinson's the percent modulation in each sample was determined as follows:
(§4) [{Concentration of biomarkers(pg/ml) in SEQ ID NO:1+MPP+Iodide treated cells)−Concentration of biomarkers(pg/ml) in Control cells(MPP+Iodide alone treated)}/Concentration of biomarkers(pg/ml) in Control cells(MPP+Iodide alone treated)]*100

Calbindin D = experiment: as above; type: cell-based, human; details: MPP + Iodide (2 mM)
Procedure: as §1, §2, §3, §4

Dopamine = experiment: as above; type: cell-based, human; details: MPP + Iodide (2 mM)
Procedure: as §1, §2, §3, §4

Serotonin = experiment: as above; type: cell-based, human; details: MPP + Iodide (2 mM)
Procedure: as §1, §2, §3, §4

Park7/DJ-1 = experiment: as above; type: cell-based, human; details: MPP + Iodide (2 mM)
Procedure: as §1, §2, §3, §4

ICAM1/CD54 = experiment: as above; type: cell-based, human; details: MPP + Iodide (2 mM)
Procedure: as §1, §2, §3, §4

SH-SY5Y neuronal cells [2] = experiment: Annexin-V staining of apoptotic cells against MPP+ iodide damage; type: cell-based, human; details: MPP+ iodide 1 mM; for % Decrease in Apoptotic cells (wrt MPP + iodide): Annexin
Procedure: After 24 h of treatment, cells were exposed to damage (MPP+ iodide 1 mM) for 24 h. […] Untreated cells were included as control. Cells treated with Deprenyl served as positive control. After treatment, cells were harvested by trypsinization and processed for Annexin V assay as follows: Cell were gently harvested into pre-labeled sterile centrifuge tubes and centrifuged at 300×g for 5-7 min. After 24 h of treatment, cells were exposed to damage (MPP+ iodide 1 mM) for 24 h. Cells treated with MPP+ iodide alone were included as Control. Untreated cells were included as negative control. Cells treated with Deprenyl served as positive control. After treatment, cells were harvested by trypsinization and processed for Annexin V assay as follows: Cell were gently harvested into pre-labelled sterile centrifuge tubes and centrifuged at 300×g for 5-7 min. Supernatant were discarded and the pellet was resuspended in 200 μl of fresh culture medium. 100 μl of cell suspension was transferred into pre-labeled sterile centrifuge tubes. 100 μl of Annexin-V reagent was added to each tube and incubated for 30 min at RT in dark. Cells stained for Annexin-V were then transferred into 96-well plates and acquired on flow cytometer (Guava technologies). Percentage of Annexin-V positive cells was determined.
Percent inhibition in apoptotic cells=[(% Annexin positive cells in MPP+iodide alone)−(% Annexin positive cells in Recombinant Lectin having SEQ ID NO:1+MPP+iodide)/% Annexin positive cells in MPP+iodide alone]*100

SMILES: C#CCN(C)[C@H](C)Cc1ccccc1 [Deprenyl, reference compound]
- Percentage Protection (SH-SY5Y neuronal cells [1]; 1 μM): 41.5%
- Percentage Protection (SH-SY5Y neuronal cells [1]; 10 μM): 49%
- Percentage Protection (SH-SY5Y neuronal cells [1]; 25 μM): 75.6%
- Percentage Protection (SH-SY5Y neuronal cells [1]; 50 μM): 74.7%
- Percentage Protection (SH-SY5Y neuronal cells [1]; 100 μM): 67.5%
- % Change of Biomarkers markers (with respect to Control) S100b (S100b; 10 μM): −6.7%
- % Change of Biomarkers markers (with respect to Control) S100b (S100b; 50 μM): −6.5%
- % Change of Biomarkers markers (with respect to Control) S100b (S100b; 100 μM): −6.5%
- % Change of Biomarkers markers (with respect to Control) Calbindin D (Calbindin D; 10 μM): 5%
- % Change of Biomarkers markers (with respect to Control) Calbindin D (Calbindin D; 50 μM): 0%
- % Change of Biomarkers markers (with respect to Control) Calbindin D (Calbindin D; 100 μM): 3.3%
- % Change of Biomarkers markers (with respect to Control) Dopamine (Dopamine; 10 μM): 21.2%
- % Change of Biomarkers markers (with respect to Control) Dopamine (Dopamine; 50 μM): 37.7%
- % Change of Biomarkers markers (with respect to Control) Dopamine (Dopamine; 100 μM): −47.2%
- % Change of Biomarkers markers (with respect to Control) Serotonin (Serotonin; 10 μM): 9.1%
- % Change of Biomarkers markers (with respect to Control) Serotonin (Serotonin; 50 μM): 33%
- % Change of Biomarkers markers (with respect to Control) Serotonin (Serotonin; 100 μM): 17.1%
- % Change of Biomarkers markers (with respect to Control) Park7/DJ-1 (Park7/DJ-1; 10 μM): −6.8%
- % Change of Biomarkers markers (with respect to Control) Park7/DJ-1 (Park7/DJ-1; 50 μM): −7.9%
- % Change of Biomarkers markers (with respect to Control) Park7/DJ-1 (Park7/DJ-1; 100 μM): −9.2%
- % Change of Biomarkers markers (with respect to Control) ICAM1/CD54 (ICAM1/CD54; 10 μM): 12.9%
- % Change of Biomarkers markers (with respect to Control) ICAM1/CD54 (ICAM1/CD54; 50 μM): −23.7%
- % Change of Biomarkers markers (with respect to Control) ICAM1/CD54 (ICAM1/CD54; 100 μM): −37%
- % Apoptotic cells (Anenxin + ve) (SH-SY5Y neuronal cells [2]; 10 μM): 3%
- % Decrease in Apoptotic cells (wrt MPP + iodide) (SH-SY5Y neuronal cells [2]; 10 μM): 27.2%
- % Apoptotic cells (Anenxin + ve) (SH-SY5Y neuronal cells [2]; 25 μM): 2.5%
- % Decrease in Apoptotic cells (wrt MPP + iodide) (SH-SY5Y neuronal cells [2]; 25 μM): 38.3%
- % Apoptotic cells (Anenxin + ve) (SH-SY5Y neuronal cells [2]; 100 μM): 2.9%
- % Decrease in Apoptotic cells (wrt MPP + iodide) (SH-SY5Y neuronal cells [2]; 100 μM): 28.4%
